Test results from US11358960B2, “Pyrazol-3-ones that activate pro-apoptotic BAX” (Dana-Farber Cancer Institute, Inc., priority 2011, dated 2022).

Columns and labels:
[1] = system: MCL-1 dependent leukemia cell line; assay: Caspase 3/7 and cell death in isogenic MCL-1 dependent leukemia cell line; assay type: cell-based
[2] = system: DHL5 diffuse large B-cell lymphoma (DLBCL) cells; assay: DHL5 cell viability assay (CellTiter-Glo); assay type: cell-based; conditions: for cell viability: single agent, 24 hours
[3] = system: BCL-XL-dependent leukemia cell line; assay: Caspase 3/7 and cell death in BCL-XL-dependent leukemia cell line; assay type: cell-based
BCL-XL = molecular target: T1, BCL-XL (Homo sapiens, UniProt Q07817); assay: Competitive FPA with FITC-BIM SAHB and BCL-XL; assay type: binding
T1 construct: serial dilutions of full-length BAX, BCL-XLΔC, MCL-1ΔNΔC, or BFL-1/A1ΔC; GST (N, cleaved yes); made in house; host or cells: Escherichia coli BL21 (DE3)
Excerpt: (§1) The BH3 binding pocket of anti-apoptotic targets shares topographic similarities with the BH3 trigger site on BAX, including a hydrophobic groove that engages the hydrophobic face of BH3 helices and a perimeter of similarly oriented charged and polar residues that are complementary to discrete residues of the hydrophilic BH3 interface. The two BH3 binding sites differ in their geographic location, pocket depth, and functionality.
(§2) BCL-2 family protein production. Recombinant and tagless full-length BAX, BCL-XLΔC, MCL-1ΔNΔC, and BFL-1/A1ΔC were expressed and purified as previously reported^17,35. Transformed Escherichia coli BL21 (DE3) were cultured in ampicillin-containing Luria Broth and protein expression was induced with 0.5 mM isopropyl β-D-1-thiogalactopyranoside (IPTG). The bacterial pellets were resuspended in buffer (250 mM NaCl, 20 mM Tris, complete protease inhibitor tablet, pH 7.2), sonicated, and after centrifugation at 45,000×g for 45 min, the supernatants were applied to glutathione-agarose columns (Sigma) for GST-BCL-XLΔC, MCL-1ΔNΔC, and BFL-1/A1ΔC, or a chitin column (BioLabs) for Intein-BAX. […]
(§3) Fluorescence polarization binding assays. Fluorescence polarization assays (FPA) were performed as previously described^35,36.

BFL-1/A1 = molecular target: T2, BFL-1/A1 (Homo sapiens, UniProt Q16548); assay: Competitive FPA with FITC-BIM SAHB and BFL-1/A1; assay type: binding
T2 construct: serial dilutions of full-length BAX, BCL-XLΔC, MCL-1ΔNΔC, or BFL-1/A1ΔC; GST (N, cleaved yes); made in house; host or cells: Escherichia coli BL21 (DE3)
T2 sequence (Q16548 1-151 limits assumed): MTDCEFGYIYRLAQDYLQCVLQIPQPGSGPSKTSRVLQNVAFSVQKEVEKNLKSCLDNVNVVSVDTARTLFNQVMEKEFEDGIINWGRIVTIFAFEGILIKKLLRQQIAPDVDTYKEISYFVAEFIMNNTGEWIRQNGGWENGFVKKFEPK
Excerpt: as §1, §2, §3

MCL-1 = molecular target: T3, MCL-1 (Homo sapiens, UniProt Q07820); assay: Competitive FPA with FITC-BIM SAHB and MCL-1; assay type: binding
T3 construct: serial dilutions of full-length BAX, BCL-XLΔC, MCL-1ΔNΔC, or BFL-1/A1ΔC; GST (N, cleaved yes); made in house; host or cells: Escherichia coli BL21 (DE3)
Excerpt: as §1, §2, §3

[4] = molecular target: T4, recombinant full-length BAX (Homo sapiens, UniProt Q07812); assay: Competitive fluorescence polarization assay: displacement of FITC-BIM SAHB from BAX; assay type: binding; conditions: positive control
T4 construct: Recombinant and tagless full-length BAX; made in house; host or cells: Escherichia coli BL21 (DE3)
Method: BCL-2 family protein production. Recombinant and tagless full-length BAX, BCL-XLΔC, MCL-1ΔNΔC, and BFL-1/A1ΔC were expressed and purified as previously reported^17,35. Transformed Escherichia coli BL21 (DE3) were cultured in ampicillin-containing Luria Broth and protein expression was induced with 0.5 mM isopropyl β-D-1-thiogalactopyranoside (IPTG). The bacterial pellets were resuspended in buffer (250 mM NaCl, 20 mM Tris, complete protease inhibitor tablet, pH 7.2), sonicated, and after centrifugation at 45,000×g for 45 min, the supernatants were applied to glutathione-agarose columns (Sigma) for GST-BCL-XLΔC, MCL-1ΔNΔC, and BFL-1/A1ΔC, or a chitin column (BioLabs) for Intein-BAX. On-bead digestion of GST-tagged protein was accomplished by overnight incubation at room temperature in the presence of thrombin (75 units) in PBS (3 mL), whereas the intein tag was cleaved from BAX by overnight incubation of the chitin beads at 4° C. with 50 mM DTT. BCL-XLΔC, MCL-1ΔNΔC, and BFL-1/A1ΔC were purified by size exclusion chromatography (SEC) using 150 mM NaCl, 50 mM Tris, pH 7.4 buffer conditions, and full-length monomeric BAX protein isolated by SEC using a Superdex-75 column (GE Healthcare) and 20 mM Hepes pH 7.2, 150 mM KCl buffer conditions.
as §3

Bax−/−Bak−/− MEFs = assay: Cell viability assay in Bax-/-Bak-/- MEFs (CellTiter-Glo); assay type: cell-based, mouse; conditions: 24 hours
leukemia cells = assay: Leukemia cell viability (anti-leukemic activity); assay type: cell-based; conditions: FIGS. 15-17
Bak−/− MEFs [5] = assay: Light microscopy (live cell imaging) of Bak-/- MEFs; assay type: cell-based, mouse; conditions: BAM7 15 μM, time lapse
Method: Light microscopy. MEFs (5,000 cells/well) were plated for 24 hours on glass bottom culture dishes (MatTek Corp., MA) and then incubated with BAM7 (15 μM) or vehicle (0.15% DMSO). Live cell imaging was performed using a TE2000-E2 Nikon microscopy equipped with a temperature and CO2-controlled chamber that maintained an atmosphere of 3-5% humidified CO2 at 37° C. A Hamamatsu Orca ER digital CCD camera was used to capture images at 20× magnification for 24 hours at 20 min intervals. Acquisition, hardware control, and image analysis was performed using Nikon NIS-Elements software.

Bak−/− MEFs [6] = assay: Cell viability assay in Bak-/- MEFs (CellTiter-Glo); assay type: cell-based, mouse; conditions: Bak−/− MEFs (express only BAX), 24 hours

T1 sequence (Q07817 1-212 limits assumed, species assumed): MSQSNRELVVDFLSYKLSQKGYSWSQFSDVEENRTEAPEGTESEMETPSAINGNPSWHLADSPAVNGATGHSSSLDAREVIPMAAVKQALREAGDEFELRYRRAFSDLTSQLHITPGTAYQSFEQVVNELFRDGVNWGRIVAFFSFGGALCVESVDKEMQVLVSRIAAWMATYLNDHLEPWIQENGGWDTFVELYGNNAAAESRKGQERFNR
T3 sequence (Q07820 170-327 limits assumed, species assumed): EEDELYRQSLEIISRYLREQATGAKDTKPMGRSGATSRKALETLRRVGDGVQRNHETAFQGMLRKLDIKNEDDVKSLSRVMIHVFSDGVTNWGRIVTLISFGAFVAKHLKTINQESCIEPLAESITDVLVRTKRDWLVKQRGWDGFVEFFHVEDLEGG
T4 sequence (Q07812 whole entry): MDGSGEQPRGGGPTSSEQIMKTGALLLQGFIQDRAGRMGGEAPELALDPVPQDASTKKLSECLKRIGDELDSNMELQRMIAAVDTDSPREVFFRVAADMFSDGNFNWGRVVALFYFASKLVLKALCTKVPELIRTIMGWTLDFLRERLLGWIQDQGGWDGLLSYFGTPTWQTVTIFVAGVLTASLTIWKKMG

| IC50 (BCL-XL; competitive FPA, read-out: IC50, competition with FITC-BIM SAHB for binding to BCL-XL) | IC50 (BFL-1/A1; competitive FPA, read-out: IC50, competition with FITC-BIM SAHB for binding to BFL-1/A1) | IC50 (MCL-1; competitive FPA, read-out: IC50, competition with FITC-BIM SAHB for binding to MCL-1) | IC50 [4] | Compound | cell death [1] | cell viability [2] | effect of added ABT-737 on the response to BAM7 ([2]; subcytotoxic dose of ABT-737 added to BAM7) | cell death [3] | competition with FITC-BIM SAHB for BCL-XL (in words) (BCL-XL; up to 50 μM dosing) | effect of BAM7 on the response to ABT-737 ([2]; BAM7 10 μM plus ABT-737) | cell viability (Bax−/−Bak−/− MEFs) | competition with FITC-BIM SAHB for BFL-1/A1 (in words) (BFL-1/A1; up to 50 μM dosing) | anti-leukemic activity (leukemia cells) | competition with FITC-BIM SAHB for MCL-1 (in words) (MCL-1; up to 50 μM dosing) | morphologic features of apoptosis (Bak−/− MEFs [5]) | cell viability (Bak−/− MEFs [6]) |
| --- | --- | --- | --- | --- | --- | --- | --- | --- | --- | --- | --- | --- | --- | --- | --- | --- |
|  |  |  |  | CN(C)CC[C@H](CSc1ccccc1)Nc1ccc(S(=O)(=O)NC(=O)c2ccc(N3CCN(Cc4ccccc4-c4ccc(Cl)cc4)CC3)cc2)cc1[N+](=O)[O-] [ABT-737, reference compound] | significant resistance | relatively resistant | further sensitized the cells to BAM7 | induces cell death |  |  |  |  |  |  |  |  |
| 572 nM | 603 nM | 136 nM | 314 nM | CC[C@H](C)[C@H](NC(C)=O)C(=O)N[C@@H](Cc1c[nH]c2ccccc12)C(=O)N[C@H](C(=O)N[C@@H](C)C(=O)N[C@@H](CCC(N)=O)C(=O)N[C@@H](CCC(=O)O)C(=O)N[C@@H](CC(C)C)C(=O)N[C@@H](CCCNC(=N)N)C(=O)N[C@@]1(C)CCCC=CCCC[C@@](C)(C(=O)N[C@@H](Cc2ccccc2)C(=O)N[C@@H](CC(N)=O)C(=O)N[C@@H](C)C(=O)N[C@@H](Cc2ccc(O)cc2)C(=O)N[C@@H](Cc2ccc(O)cc2)C(=O)N[C@@H](C)C(=O)N[C@@H](CCCNC(=N)N)C(=O)N[C@@H](CCCNC(=N)N)C(N)=O)NC(=O)[C@H](CC(=O)O)NC(=O)CNC(=O)[C@H]([C@@H](C)CC)NC1=O)[C@@H](C)CC [Ac-BIM SAHB, reference compound] |  |  |  |  |  |  |  |  |  |  |  |  |
|  |  |  |  | CCOc1ccccc1NN=C1C(=O)N(c2nc(-c3ccccc3)cs2)N=C1C [BAM7, 4-(2-(2-ethoxyphenyl)hydrazono)-3-methyl-1-(4-phenylthiazol-2-yl)-1H-pyrazol-5(4H)-one] |  | dose-responsive impairment of cell viability |  |  | little to no anti-apoptotic binding interactions | sensitized DHL5 cells to ABT-737 | did not affect the viability | little to no anti-apoptotic binding interactions | anti-leukemic activity | little to no anti-apoptotic binding interactions | characteristic microscopic features of apoptosis | dose-responsively impaired the viability |
